Assay: evaluation of solubility in water (dissolving at 40° C., then deposition on ice bath at 0° C.)
Format: physicochemical
Details: for Solubility of 0° C.: time to deposition, aqueous solution (20 g/100 mL) on ice bath under stirring; for Solubility at 40° C.: time to dissolve 20 g sample in 100 mL water on warm bath at 40° C., stirred
Experimental: Compounds I-1, I-2, I-4, I-11, I-12, and I-22 obtained above, and the Comparison Compounds a, b, c and d were subjected to evaluation of solubility in water.
Water (100 mL) was added to 20 g of each sample, and the mixture was placed on a warm bath (at 40° C.), and stirred using a magnetic stirrer, so that the added sample was dissolved in the warm water. Then, the obtained aqueous solution was placed on an ice bath under stirring.

Structure (SMILES) | Solubility of 0° C. | Solubility at 40° C.
O=S(=O)([O-])CCNc1nc(NCC(O)CO)nc(Nc2ccc(C=Cc3ccc(Nc4nc(NCCS(=O)(=O)[O-])nc(NCC(O)CO)n4)cc3S(=O)(=O)[O-])c(S(=O)(=O)[O-])c2)n1.[Na+].[Na+].[Na+].[Na+] (stereo not shown) [Comp. I-1] | No deposition within 180 sec. | dissolved within 120 sec.
O=S(=O)([O-])CCNc1nc(NCCC(O)CO)nc(Nc2ccc(C=Cc3ccc(Nc4nc(NCCC(O)CO)nc(NCCS(=O)(=O)[O-])n4)cc3S(=O)(=O)[O-])c(S(=O)(=O)[O-])c2)n1.[Na+].[Na+].[Na+].[Na+] (stereo not shown) [Comp. I-4] | No deposition within 180 sec. | 
O=S(=O)([O-])CCNc1nc(NCCOCCO)nc(Nc2ccc(C=Cc3ccc(Nc4nc(NCCOCCO)nc(NCCS(=O)(=O)[O-])n4)cc3S(=O)(=O)[O-])c(S(=O)(=O)[O-])c2)n1.[Na+].[Na+].[Na+].[Na+] [Comp. I-11] | No deposition within 180 sec. | dissolved within 120 sec.
O=S(=O)([O-])CCNc1nc(NCCCO)nc(Nc2ccc(C=Cc3ccc(Nc4nc(NCCCO)nc(NCCS(=O)(=O)[O-])n4)cc3S(=O)(=O)[O-])c(S(=O)(=O)[O-])c2)n1.[Na+].[Na+].[Na+].[Na+] [Comp. a, reference compound] |  | some insoluble remained at 300 sec.
CC(C)(CO)CNc1nc(NCCS(=O)(=O)[O-])nc(Nc2ccc(C=Cc3ccc(Nc4nc(NCCS(=O)(=O)[O-])nc(NCC(C)(C)CO)n4)cc3S(=O)(=O)[O-])c(S(=O)(=O)[O-])c2)n1.[Na+].[Na+].[Na+].[Na+] [Comp. b, reference compound] |  | some insoluble remained at 300 sec.

Source: patent publication US20050230662A1, “Diaminostilbene derivatives” (priority 1999, published 2005)
